Results as given in US20080207708A1, “Oxazole and Thiazole Compounds and Their Use in the Treatment of Pge2 Mediated Disorders” (GLAXO GROUP LIMITED, priority 2005, published 2008).

How the values were obtained:
EP1 receptors [1] = molecular target: T1, EP1 receptors (Homo sapiens, UniProt P34995); assay: human EP1 calcium mobilisation assay (CHO-K1 cells, FLIPR, PGE2); assay type: cell-based; set-up: expressed in transfected cells; host or cells: CHO-K1 cells, pCIN vector; details: free bases or sodium salts; averages of a number of experiments; read-out: functional pKi value, human EP1 calcium mobilisation assay (converted)
T1 sequence (P34995 1-402): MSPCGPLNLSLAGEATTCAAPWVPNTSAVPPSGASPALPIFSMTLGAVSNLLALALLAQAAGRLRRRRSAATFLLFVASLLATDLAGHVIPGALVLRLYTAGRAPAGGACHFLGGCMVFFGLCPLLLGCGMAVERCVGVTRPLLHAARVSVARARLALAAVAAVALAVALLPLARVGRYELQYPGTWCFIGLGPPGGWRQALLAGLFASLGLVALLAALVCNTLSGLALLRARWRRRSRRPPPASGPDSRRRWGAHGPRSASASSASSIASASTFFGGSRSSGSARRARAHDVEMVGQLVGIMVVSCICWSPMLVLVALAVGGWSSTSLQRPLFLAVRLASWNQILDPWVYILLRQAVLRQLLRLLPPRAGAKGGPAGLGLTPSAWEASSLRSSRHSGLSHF
Description: Briefly, the antagonist properties of compounds are assessed by their ability to inhibit the mobilisation of intracellular calcium ([Ca^2+]i) in response to activation of EP1 or EP3 receptors by the natural agonist hormone prostaglandin E2 (PGE2). Increasing concentrations of antagonist reduce the amount of calcium that a given concentration of PGE2 can mobilise. The net effect is to displace the PGE2 concentration-effect curve to higher concentrations of PGE2. The amount of calcium produced is assessed using a calcium-sensitive fluorescent dye such as Fluo-4, AM and a suitable instrument such as a Fluorimetric Imaging Plate Reader (FLIPR). Increasing amounts of [Ca^2+]i produced by receptor activation increase the amount of fluorescence produced by the dye and give rise to an increasing signal. The signal may be detected using the FLIPR instrument and the data generated may be analysed with suitable curve-fitting software.
The human EP1 or EP3 calcium mobilisation assay (hereafter referred to as ‘the calcium assay’) utilises Chinese hamster ovary-K1 (CHO-K1) cells into which a stable (pCIN; BioTechniques 20 (1996): 102-110) vector containing either EP1 or EP3 cDNA has previously been transfected. Cells are cultured in suitable flasks containing culture medium such as DMEM:F-12 supplemented with 10% v/v foetal calf serum, 2 mM L-glutamine, 0.25 mg/ml geneticin, 100 μM flurbiprofen and 10 µg/ml puromycin. For assay, cells are harvested using a proprietary reagent that dislodges cells such as Versene. Cells are re-suspended in a suitable quantity of fresh culture media for introduction into a 384-well plate. Following incubation for 24 hours at 37° C. the culture media is replaced with a medium containing Fluo-4 and the detergent pluronic acid, and a further incubation takes place. Concentrations of compounds are then added to the plate in order to construct concentration-effect curves. This may be performed on the FLIPR in order to assess the agonist properties of the compounds. Concentrations of PGE2 are then added to the plate in order to assess the antagonist properties of the compounds. The data so generated may be analysed by means of a computerised curve-fitting routine. The concentration of compound that elicits a half-maximal inhibition of the calcium mobilisation induced by PGE2 (pIC50) may then be estimated.

EP1 receptors [2] = molecular target: T1, EP1 receptors; assay: Binding assay for the human prostanoid EP1 receptor (competition with [3H]-PGE2); set-up: expressed in transfected cells; host or cells: CHO-K1 cells, membrane fraction; details: [3H]-PGE2 competition; averages of a number of experiments; read-out: pIC50 value, binding assay for the human prostanoid EP1 receptor (converted)
Summary of the method: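 Competition against 3 nM (final) tritiated PGE2 at 30° C for 30 min, pH 6 MES assay buffer, using membranes of stably transfected CHO-K1 cells. Filter-retained counts by scintillation; nonlinear curve fitting gives concentration inhibiting 50% of specific binding.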

## CC(C(=O)O)c1csc(-c2cc(Cl)ccc2OCc2ccccc2)n1 (stereo not shown) [Example 46, Sodium 2-(2-{5-chloro-2-[(phenylmethyl)oxy]phenyl}-1,3-thiazol-4-yl)propanoate]
EP1 receptors [1]
  Ki: < 1000 nM
EP1 receptors [2]
  IC50: ≤ 1000 nM

## CC(C(=O)O)c1csc(-c2cc(Br)ccc2OCc2ccccc2)n1 (stereo not shown) [Example 47, Sodium 2-(2-{5-bromo-2-[(phenylmethyl)oxy]phenyl}-1,3-thiazol-4-yl)propanoate]
EP1 receptors [1]
  Ki: < 1000 nM
EP1 receptors [2]
  IC50: ≤ 1000 nM

## CC(C)(C(=O)O)c1csc(-c2cc(Cl)ccc2OCc2ccccc2)n1 [Example 48, Sodium 2-(2-{5-chloro-2-[(phenylmethyl)oxy]phenyl}-1,3-thiazol-4-yl)-2-methylpropanoate]
EP1 receptors [1]
  Ki: < 1000 nM
EP1 receptors [2]
  IC50: ≤ 1000 nM

## CC(C)(C(=O)O)c1csc(-c2cc(Br)ccc2OCc2ccccc2)n1 [Example 49, Sodium 2-(2-{5-bromo-2-[(phenylmethyl)oxy]phenyl}-1,3-thiazol-4-yl)-2-methylpropanoate]
EP1 receptors [1]
  Ki: < 1000 nM
EP1 receptors [2]
  IC50: ≤ 1000 nM

## CC(c1nc(C(=O)O)cs1)c1cc(Cl)ccc1OCc1ccccc1 (stereo not shown) [Example 50]
EP1 receptors [1]
  Ki: < 1000 nM
EP1 receptors [2]
  IC50: ≤ 1000 nM

## O=C(O)Cc1coc(-c2cc(Cl)ccc2OCc2ccc(F)cc2F)n1 [Example 79, [2-(5-chloro-2-{[(2,4-difluorophenyl)-methyl]oxy}phenyl)-1,3-oxazol-4-yl]acetic acid]
EP1 receptors [1]
  Ki: > 1000 nM
EP1 receptors [2]
  IC50: ≤ 1000 nM

## O=C(O)Cc1coc(-c2cc(Cl)ccc2OCc2c(F)cc(F)cc2F)n1 [Example 80, [2-(5-chloro-2-{[(2,4,6-trifluorophenyl)methyl]oxy}phenyl)-1,3-oxazol-4-yl]acetic acid]
EP1 receptors [1]
  Ki: > 1000 nM
EP1 receptors [2]
  IC50: ≤ 1000 nM

## O=C(O)Cc1coc(-c2cc(Cl)ccc2OCc2ccc(F)cc2Cl)n1 [Example 81, [2-(5-chloro-2-{[(2-chloro-4-fluorophenyl)methyl]oxy}phenyl)-1,3-oxazol-4-yl]acetic acid]
EP1 receptors [1]
  Ki: > 1000 nM
EP1 receptors [2]
  IC50: ≤ 1000 nM

## O=C(Nc1ccccc1)c1csc(Cc2cc(Cl)ccc2OCc2ccccc2)n1 [Example 91, 2-({5-Chloro-2-[(phenylmethyl)oxy]phenyl}methyl)-N-phenyl-1,3-thiazole-4-carboxamide]
EP1 receptors [1]
  Ki: > 1000 nM
EP1 receptors [2]
  IC50: ≤ 1000 nM

## O=C(NCc1ccccc1)c1csc(Cc2cc(Cl)ccc2OCc2ccccc2)n1 [Example 92, 2-({5-Chloro-2-[(phenylmethyl)oxy]phenyl}methyl)-N-(phenylmethyl)-1,3-thiazole-4-carboxamide]
EP1 receptors [1]
  Ki: > 1000 nM
EP1 receptors [2]
  IC50: ≤ 1000 nM

## CC(C)CNC(=O)c1csc(Cc2cc(Cl)ccc2OCc2ccccc2)n1 [Example 93, 2-({5-Chloro-2-[(phenylmethyl)oxy]phenyl}methyl)-N-(2-methylpropyl)-1,3-thiazole-4-carboxamide]
EP1 receptors [1]
  Ki: > 1000 nM
EP1 receptors [2]
  IC50: ≤ 1000 nM

## O=C(NCc1ccccn1)c1csc(Cc2cc(Cl)ccc2OCc2ccccc2)n1 [Example 94, 2-({5-Chloro-2-[(phenylmethyl)oxy]phenyl}methyl)-N-(2-pyridinylmethyl)-1,3-thiazole-4-carboxamide]
EP1 receptors [1]
  Ki: < 1000 nM
EP1 receptors [2]
  IC50: ≤ 1000 nM

## O=C(NCc1cccnc1)c1csc(Cc2cc(Cl)ccc2OCc2ccccc2)n1 [Example 95, 2-({5-Chloro-2-[(phenylmethyl)oxy]phenyl}methyl)-N-(3-pyridinylmethyl)-1,3-thiazole-4-carboxamide]
EP1 receptors [1]
  Ki: < 1000 nM
EP1 receptors [2]
  IC50: ≤ 1000 nM

## O=C(NCc1ccncc1)c1csc(Cc2cc(Cl)ccc2OCc2ccccc2)n1 [Example 96, 2-({5-Chloro-2-[(phenylmethyl)oxy]phenyl}methyl)-N-(4-pyridinylmethyl)-1,3-thiazole-4-carboxamide]
EP1 receptors [1]
  Ki: < 1000 nM
EP1 receptors [2]
  IC50: ≤ 1000 nM

## CNC(=O)c1csc(Cc2cc(Cl)ccc2OCc2ccccc2)n1 [Example 97, 2-({5-Chloro-2-[(phenylmethyl)oxy]phenyl}methyl)-N-methyl-1,3-thiazole-4-carboxamide]
EP1 receptors [1]
  Ki: > 1000 nM
EP1 receptors [2]
  IC50: ≤ 1000 nM

## O=C(Nc1nnn[nH]1)c1csc(Cc2cc(Cl)ccc2OCc2ccccc2)n1 [Example 98, 2-({5-Chloro-2-[(phenylmethyl)oxy]phenyl}methyl)-N-1H-tetrazol-5-yl-1,3-thiazole-4-carboxamide]
EP1 receptors [1]
  Ki: ≤ 31.6 nM
EP1 receptors [2]
  IC50: ≤ 1000 nM

## O=C(Nc1ccccn1)c1csc(Cc2cc(Cl)ccc2OCc2ccccc2)n1 [Example 99, 2-({5-Chloro-2-[(phenylmethyl)oxy]phenyl}methyl)-N-2-pyridinyl-1,3-thiazole-4-carboxamide]
EP1 receptors [1]
  Ki: > 1000 nM
EP1 receptors [2]
  IC50: ≤ 1000 nM

## O=C(NS(=O)(=O)c1ccccc1)c1csc(Cc2cc(Cl)ccc2OCc2ccc(F)cc2)n1 [Example 101, 2-[(5-Chloro-2-{[(4-fluorophenyl)methyl]-oxy}phenyl)methyl]-N-(phenylsulfonyl)-1,3-thiazole-4-carboxamide]
EP1 receptors [1]
  Ki: < 1000 nM
EP1 receptors [2]
  IC50: ≤ 31.6 nM

## O=C(NS(=O)(=O)c1ccccc1)c1csc(Cc2cc(Cl)ccc2OCc2ccc(F)cc2F)n1 [Example 102, 2-[(5-Chloro-2-{[(2,4-difluorophenyl)methyl]oxy}phenyl)methyl]-N-(phenylsulfonyl)-1,3-thiazole-4-carboxamide]
EP1 receptors [1]
  Ki: < 1000 nM
EP1 receptors [2]
  IC50: ≤ 31.6 nM

## O=C(NS(=O)(=O)c1ccccc1)c1csc(Cc2cc(Cl)ccc2OCc2ccccc2F)n1 [Example 103, 2-[(5-Chloro-2-{[(2-fluorophenyl)methyl]-oxy}phenyl)methyl]-N-(phenylsulfonyl)-1,3-thiazole-4-carboxamide]
EP1 receptors [1]
  Ki: < 1000 nM
EP1 receptors [2]
  IC50: ≤ 31.6 nM

## O=C(NS(=O)(=O)c1ccccc1)c1csc(Cc2cc(Cl)ccc2OCc2ccccc2Cl)n1 [Example 104, 2-[(5-Chloro-2-{[(2-chlorophenyl)methyl]-oxy}phenyl)methyl]-N-(phenylsulfonyl)-1,3-thiazole-4-carboxamide]
EP1 receptors [1]
  Ki: < 1000 nM
EP1 receptors [2]
  IC50: ≤ 31.6 nM

## O=C(NS(=O)(=O)c1ccccc1)c1csc(Cc2cc(Cl)ccc2OCc2ccc(Cl)cc2F)n1 [Example 105, 2-[(5-Chloro-2-{[(4-chloro-2-fluorophenyl)methyl]-oxy}phenyl)methyl]-N-(phenylsulfonyl)-1,3-thiazole-4-carboxamide]
EP1 receptors [1]
  Ki: < 1000 nM
EP1 receptors [2]
  IC50: ≤ 31.6 nM

## O=C(NS(=O)(=O)c1ccccc1)c1csc(Cc2cc(Cl)ccc2OCc2cc(F)c(F)cc2F)n1 [Example 106, 2-[(5-Chloro-2-{[(2,4,5-trifluorophenyl)methyl]oxy}phenyl)methyl]-N-(phenylsulfonyl)-1,3-thiazole-4-carboxamide]
EP1 receptors [1]
  Ki: ≤ 31.6 nM
EP1 receptors [2]
  IC50: ≤ 31.6 nM

## CS(=O)(=O)NC(=O)c1csc(Cc2cc(Cl)ccc2OCc2ccc(F)cc2)n1 [Example 107, 2-[(5-Chloro-2-{[(4-fluorophenyl)methyl]-oxy)phenyl)methyl]-N-(methylsulfonyl)-1,3-thiazole-4-carboxamide]
EP1 receptors [1]
  Ki: < 1000 nM
EP1 receptors [2]
  IC50: ≤ 31.6 nM

## Cc1noc(C)c1S(=O)(=O)NC(=O)c1csc(Cc2cc(Cl)ccc2OCc2ccccc2)n1 [Example 108, 2-({5-Chloro-2-[(phenylmethyl)oxy]-phenyl}methyl)-N-[(3,5-dimethyl-4-isoxazolyl)sulfonyl]-1,3-thiazole-4-carboxamide]
EP1 receptors [1]
  Ki: ≤ 31.6 nM
EP1 receptors [2]
  IC50: ≤ 31.6 nM

## CC(C)(C)OC(=O)Nc1csc(Cc2cc(Cl)ccc2OCc2ccccc2)n1 [Example 110, 1,1-Dimethylethyl [2-({5-chloro-2-[(phenylmethyl)oxy]phenyl}methyl)-1,3-thiazol-4-yl]carbamate]
EP1 receptors [1]
  Ki: > 1000 nM
EP1 receptors [2]
  IC50: ≤ 1000 nM
